According to ChEMBL document CHEMBL1641539 (Bioorg Med Chem Lett, 2011):

What was measured:
[1] = biological target: Tyrosine-protein kinase JAK2 (Homo sapiens) (UniProt O60674); assay: Inhibition of human JAK2 at 10 uM after 60 mins by TR-FRET assay; settings: values are per cent of control
[2] = biological target: Serine/threonine-protein kinase 4 (Homo sapiens) (UniProt Q13043); assay: Inhibition of human MST1 at 10 uM after 60 mins by TR-FRET assay; settings: values are per cent of control
[3] = biological target: Mitogen-activated protein kinase 14 (Homo sapiens, UniProt Q16539); assay: Inhibition of human SAPK2a at 10 uM after 60 mins by TR-FRET assay; settings: values are per cent of control
Mitogen-activated protein kinase 14, sequence (Q16539 whole entry): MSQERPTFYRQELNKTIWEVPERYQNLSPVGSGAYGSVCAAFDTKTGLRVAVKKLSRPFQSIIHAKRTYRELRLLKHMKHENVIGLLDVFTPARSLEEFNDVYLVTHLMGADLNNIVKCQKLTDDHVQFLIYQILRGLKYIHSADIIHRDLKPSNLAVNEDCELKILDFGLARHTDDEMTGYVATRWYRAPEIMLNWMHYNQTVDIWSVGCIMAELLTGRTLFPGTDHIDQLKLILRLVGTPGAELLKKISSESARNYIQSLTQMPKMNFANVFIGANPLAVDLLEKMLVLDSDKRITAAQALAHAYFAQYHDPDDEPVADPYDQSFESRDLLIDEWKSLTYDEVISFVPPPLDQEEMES

[4] = biological target: MAP kinase-activated protein kinase 5 (Homo sapiens) (UniProt Q8IW41); assay: Residual activity of human PRAK at 10 uM after 60 mins by TR-FRET assay
[5] = biological target: Cyclin-dependent kinase 1/cyclin B (Homo sapiens) (UniProt P06493+P14635+Q8WWL7+O95067); assay: Residual activity of human CDK1/cyclinB at 10 uM after 60 mins by TR-FRET assay
Rattus norvegicus = organism: Rattus norvegicus; assay: Inhibition of rat AMPK at 10 uM after 60 mins by TR-FRET assay; values are per cent of control
[6] = biological target: Serine/threonine-protein kinase Sgk1 (Homo sapiens) (UniProt O00141); assay: Inhibition of human SGK at 10 uM after 60 mins by TR-FRET assay; values are per cent of control
Serine/threonine-protein kinase Sgk1 (Homo sapiens), sequence (O00141 whole entry): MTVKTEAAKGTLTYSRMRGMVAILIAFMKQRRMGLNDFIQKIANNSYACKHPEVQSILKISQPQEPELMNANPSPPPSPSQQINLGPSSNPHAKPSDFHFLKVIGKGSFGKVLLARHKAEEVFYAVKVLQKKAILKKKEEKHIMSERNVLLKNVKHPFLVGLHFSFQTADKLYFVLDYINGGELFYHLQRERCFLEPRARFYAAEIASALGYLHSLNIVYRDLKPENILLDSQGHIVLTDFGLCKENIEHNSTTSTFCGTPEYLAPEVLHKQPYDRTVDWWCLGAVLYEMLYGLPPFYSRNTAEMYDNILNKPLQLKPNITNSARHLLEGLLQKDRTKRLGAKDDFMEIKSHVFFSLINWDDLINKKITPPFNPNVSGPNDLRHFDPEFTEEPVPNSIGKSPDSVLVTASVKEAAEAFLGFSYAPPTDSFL

[7] = biological target: Tyrosine-protein kinase ABL1 (Homo sapiens) (UniProt P00519); assay: Inhibition of human Abl at 10 uM after 60 mins by TR-FRET assay; values are per cent of control
[8] = biological target: Tyrosine-protein kinase ABL2 (Mus musculus) (UniProt Q4JIM5); assay: Inhibition of mouse Arg at 10 uM after 60 mins by TR-FRET assay; values are per cent of control
[9] = biological target: Mitogen-activated protein kinase 10 (Homo sapiens, UniProt P53779); assay: Inhibition of human JNK3 at 10 uM after 60 mins by TR-FRET assay; values are per cent of control
[10] = biological target: Maternal embryonic leucine zipper kinase (Homo sapiens) (UniProt Q14680); assay: Inhibition of human MELK at 10 uM after 60 mins by TR-FRET assay; values are per cent of control
Maternal embryonic leucine zipper kinase (Homo sapiens), sequence (Q14680 whole entry, looked up): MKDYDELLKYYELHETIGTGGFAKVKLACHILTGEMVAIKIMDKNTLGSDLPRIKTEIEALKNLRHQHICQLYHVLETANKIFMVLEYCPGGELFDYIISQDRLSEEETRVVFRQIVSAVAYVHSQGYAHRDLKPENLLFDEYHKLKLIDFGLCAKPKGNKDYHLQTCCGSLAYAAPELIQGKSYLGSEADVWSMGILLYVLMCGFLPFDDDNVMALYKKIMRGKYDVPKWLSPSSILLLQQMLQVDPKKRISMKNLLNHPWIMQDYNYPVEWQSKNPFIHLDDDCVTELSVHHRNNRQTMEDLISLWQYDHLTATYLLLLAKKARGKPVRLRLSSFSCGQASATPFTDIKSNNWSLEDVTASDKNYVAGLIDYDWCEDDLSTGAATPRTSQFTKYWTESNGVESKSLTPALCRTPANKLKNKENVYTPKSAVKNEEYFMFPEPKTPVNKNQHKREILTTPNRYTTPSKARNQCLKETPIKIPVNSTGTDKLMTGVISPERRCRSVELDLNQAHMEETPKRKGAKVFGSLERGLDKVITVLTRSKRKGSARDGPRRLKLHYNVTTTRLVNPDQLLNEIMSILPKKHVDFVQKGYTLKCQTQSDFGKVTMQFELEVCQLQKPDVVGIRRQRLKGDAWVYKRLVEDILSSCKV

[11] = biological target: Serine/threonine-protein kinase Nek3 (Homo sapiens) (UniProt P51956); assay: Inhibition of human NEK3 at 10 uM after 60 mins by TR-FRET assay; values are per cent of control
Serine/threonine-protein kinase Nek3 (Homo sapiens), sequence (P51956 whole entry): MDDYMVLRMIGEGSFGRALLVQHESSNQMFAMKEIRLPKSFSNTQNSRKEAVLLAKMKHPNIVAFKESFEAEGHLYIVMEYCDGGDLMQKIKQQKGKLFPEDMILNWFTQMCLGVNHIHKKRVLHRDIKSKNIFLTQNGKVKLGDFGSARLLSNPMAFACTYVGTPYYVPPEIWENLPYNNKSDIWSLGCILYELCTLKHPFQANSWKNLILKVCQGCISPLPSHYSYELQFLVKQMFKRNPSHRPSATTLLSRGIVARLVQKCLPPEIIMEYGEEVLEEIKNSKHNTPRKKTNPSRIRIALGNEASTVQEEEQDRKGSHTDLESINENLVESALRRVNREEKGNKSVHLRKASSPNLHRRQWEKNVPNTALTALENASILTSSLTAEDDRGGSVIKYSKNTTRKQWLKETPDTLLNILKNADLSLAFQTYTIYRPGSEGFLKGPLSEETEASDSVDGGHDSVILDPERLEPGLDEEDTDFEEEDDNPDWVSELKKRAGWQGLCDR

[12] = biological target: Serine/threonine-protein kinase Nek7 (Homo sapiens) (UniProt Q8TDX7); assay: Inhibition of human NEK7 at 10 uM after 60 mins by TR-FRET assay; values are per cent of control
[13] = biological target: Angiopoietin-1 receptor (Homo sapiens) (UniProt Q02763); assay: Inhibition of human Tie2 at 10 uM after 60 mins by TR-FRET assay; values are per cent of control
[14] = biological target: Serine/threonine-protein kinase ULK2 (Homo sapiens) (UniProt Q8IYT8); assay: Inhibition of human ULK2 at 10 uM after 60 mins by TR-FRET assay; values are per cent of control
Serine/threonine-protein kinase ULK2 (Homo sapiens), sequence (Q8IYT8 whole entry): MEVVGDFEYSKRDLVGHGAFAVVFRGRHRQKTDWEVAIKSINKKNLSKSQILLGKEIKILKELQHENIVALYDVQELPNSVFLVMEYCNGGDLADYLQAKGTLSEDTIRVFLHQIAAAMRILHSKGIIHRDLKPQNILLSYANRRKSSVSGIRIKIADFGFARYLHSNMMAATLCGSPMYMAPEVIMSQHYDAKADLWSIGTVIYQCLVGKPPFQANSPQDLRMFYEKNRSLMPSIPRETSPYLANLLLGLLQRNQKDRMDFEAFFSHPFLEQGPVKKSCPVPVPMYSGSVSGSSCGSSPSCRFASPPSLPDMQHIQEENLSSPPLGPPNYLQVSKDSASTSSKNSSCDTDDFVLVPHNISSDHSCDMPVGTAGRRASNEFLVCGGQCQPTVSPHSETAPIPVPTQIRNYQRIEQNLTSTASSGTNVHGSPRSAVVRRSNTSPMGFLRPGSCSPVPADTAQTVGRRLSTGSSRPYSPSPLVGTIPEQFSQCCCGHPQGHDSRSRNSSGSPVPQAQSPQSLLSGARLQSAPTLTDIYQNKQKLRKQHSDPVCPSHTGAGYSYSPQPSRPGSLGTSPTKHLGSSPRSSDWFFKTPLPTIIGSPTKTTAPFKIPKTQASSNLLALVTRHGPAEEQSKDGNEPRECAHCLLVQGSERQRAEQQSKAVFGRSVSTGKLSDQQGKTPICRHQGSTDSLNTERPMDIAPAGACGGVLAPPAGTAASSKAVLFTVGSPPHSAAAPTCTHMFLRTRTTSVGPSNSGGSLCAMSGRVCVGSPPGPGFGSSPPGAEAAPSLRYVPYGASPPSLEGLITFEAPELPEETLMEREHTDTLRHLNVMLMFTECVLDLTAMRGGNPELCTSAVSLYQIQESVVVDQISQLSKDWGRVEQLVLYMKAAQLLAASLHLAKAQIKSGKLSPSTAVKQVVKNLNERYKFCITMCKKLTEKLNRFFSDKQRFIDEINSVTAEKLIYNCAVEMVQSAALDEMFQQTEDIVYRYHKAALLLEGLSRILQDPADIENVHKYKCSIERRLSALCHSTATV

[15] = biological target: Dual specificity protein kinase CLK2 (Homo sapiens) (UniProt P49760); assay: Inhibition of human CLK2 at 10 uM after 60 mins by TR-FRET assay; values are per cent of control
[16] = biological target: Dual specificity protein kinase CLK3 (Homo sapiens) (UniProt P49761); assay: Inhibition of human CLK3 at 10 uM after 60 mins by TR-FRET assay; values are per cent of control
[17] = biological target: Serine/threonine-protein kinase N2 (Homo sapiens) (UniProt Q16513); assay: Inhibition of human PRK2 at 10 uM after 60 mins by TR-FRET assay; values are per cent of control
[18] = biological target: Ephrin type-B receptor 1 (Homo sapiens) (UniProt P54762); assay: Inhibition of human EphB1 at 10 uM after 60 mins by TR-FRET assay; values are per cent of control
[19] = biological target: Casein kinase II subunit alpha' (Homo sapiens) (UniProt P19784); assay: Inhibition of human CK2a2 at 10 uM after 60 mins by TR-FRET assay; values are per cent of control
Casein kinase II subunit alpha' (Homo sapiens), sequence (P19784 whole entry, looked up): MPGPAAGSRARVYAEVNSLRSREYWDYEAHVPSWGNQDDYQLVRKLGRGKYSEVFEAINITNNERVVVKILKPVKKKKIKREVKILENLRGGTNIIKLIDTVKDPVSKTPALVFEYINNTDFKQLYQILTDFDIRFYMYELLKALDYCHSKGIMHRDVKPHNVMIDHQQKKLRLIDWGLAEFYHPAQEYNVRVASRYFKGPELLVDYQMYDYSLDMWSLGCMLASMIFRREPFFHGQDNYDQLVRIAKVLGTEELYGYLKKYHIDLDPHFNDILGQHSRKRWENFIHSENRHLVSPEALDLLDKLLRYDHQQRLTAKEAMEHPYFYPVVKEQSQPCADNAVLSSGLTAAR

[20] = biological target: Proto-oncogene tyrosine-protein kinase Src (Homo sapiens) (UniProt P12931); assay: Inhibition of human c-SRC at 10 uM after 60 mins by TR-FRET assay; values are per cent of control
[21] = biological target: Death-associated protein kinase 1 (Homo sapiens) (UniProt P53355); assay: Inhibition of human DAPK1 at 10 uM after 60 mins by TR-FRET assay; values are per cent of control
[22] = biological target: Glycogen synthase kinase-3 beta (Homo sapiens) (UniProt P49841); assay: Inhibition of human GSK3-beta at 10 uM after 60 mins by TR-FRET assay; values are per cent of control
[23] = biological target: Phosphorylase b kinase gamma catalytic chain, liver/testis isoform (Homo sapiens) (UniProt P15735); assay: Inhibition of human PhKgamma2 at 10 uM after 60 mins by TR-FRET assay; values are per cent of control
Phosphorylase b kinase gamma catalytic chain, liver/testis isoform (Homo sapiens), sequence (P15735 whole entry, canonical isoform): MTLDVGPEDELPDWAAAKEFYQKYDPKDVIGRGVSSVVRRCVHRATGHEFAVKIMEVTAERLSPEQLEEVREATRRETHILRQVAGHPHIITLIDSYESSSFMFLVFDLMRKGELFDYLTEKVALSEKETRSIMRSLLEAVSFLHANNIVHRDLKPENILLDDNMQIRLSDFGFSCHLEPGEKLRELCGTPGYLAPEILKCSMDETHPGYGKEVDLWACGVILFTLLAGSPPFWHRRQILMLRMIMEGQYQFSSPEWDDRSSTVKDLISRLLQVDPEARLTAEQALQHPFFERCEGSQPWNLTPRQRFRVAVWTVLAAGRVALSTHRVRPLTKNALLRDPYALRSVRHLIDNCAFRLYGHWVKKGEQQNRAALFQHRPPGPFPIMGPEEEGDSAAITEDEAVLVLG

[24] = biological target: Calcium/calmodulin-dependent protein kinase type II subunit gamma (Homo sapiens) (UniProt Q13555); assay: Inhibition of human CaMK2gamma at 10 uM after 60 mins by TR-FRET assay; values are per cent of control
[25] = biological target: Calcium/calmodulin-dependent protein kinase type II subunit delta (Homo sapiens) (UniProt Q13557); assay: Inhibition of human CaMK2delta at 10 uM after 60 mins by TR-FRET assay; values are per cent of control
Calcium/calmodulin-dependent protein kinase type II subunit delta (Homo sapiens), sequence (Q13557 whole entry): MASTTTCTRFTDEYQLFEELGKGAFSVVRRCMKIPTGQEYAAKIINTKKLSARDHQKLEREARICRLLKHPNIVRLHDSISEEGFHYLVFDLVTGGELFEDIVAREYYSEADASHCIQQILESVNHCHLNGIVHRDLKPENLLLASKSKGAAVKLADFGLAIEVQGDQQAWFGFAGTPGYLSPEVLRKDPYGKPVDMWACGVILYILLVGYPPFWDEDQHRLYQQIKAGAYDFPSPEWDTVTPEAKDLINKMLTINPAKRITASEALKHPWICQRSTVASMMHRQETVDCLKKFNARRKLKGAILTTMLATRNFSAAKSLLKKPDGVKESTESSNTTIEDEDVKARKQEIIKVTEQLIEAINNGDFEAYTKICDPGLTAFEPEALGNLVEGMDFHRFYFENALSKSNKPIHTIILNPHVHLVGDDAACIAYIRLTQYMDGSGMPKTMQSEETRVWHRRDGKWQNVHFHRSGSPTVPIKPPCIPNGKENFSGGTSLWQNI

[26] = biological target: Protein kinase C epsilon type (Homo sapiens) (UniProt Q02156); assay: Inhibition of human PKCepsilon at 10 uM after 60 mins by TR-FRET assay; values are per cent of control
Protein kinase C epsilon type (Homo sapiens), sequence (Q02156 whole entry): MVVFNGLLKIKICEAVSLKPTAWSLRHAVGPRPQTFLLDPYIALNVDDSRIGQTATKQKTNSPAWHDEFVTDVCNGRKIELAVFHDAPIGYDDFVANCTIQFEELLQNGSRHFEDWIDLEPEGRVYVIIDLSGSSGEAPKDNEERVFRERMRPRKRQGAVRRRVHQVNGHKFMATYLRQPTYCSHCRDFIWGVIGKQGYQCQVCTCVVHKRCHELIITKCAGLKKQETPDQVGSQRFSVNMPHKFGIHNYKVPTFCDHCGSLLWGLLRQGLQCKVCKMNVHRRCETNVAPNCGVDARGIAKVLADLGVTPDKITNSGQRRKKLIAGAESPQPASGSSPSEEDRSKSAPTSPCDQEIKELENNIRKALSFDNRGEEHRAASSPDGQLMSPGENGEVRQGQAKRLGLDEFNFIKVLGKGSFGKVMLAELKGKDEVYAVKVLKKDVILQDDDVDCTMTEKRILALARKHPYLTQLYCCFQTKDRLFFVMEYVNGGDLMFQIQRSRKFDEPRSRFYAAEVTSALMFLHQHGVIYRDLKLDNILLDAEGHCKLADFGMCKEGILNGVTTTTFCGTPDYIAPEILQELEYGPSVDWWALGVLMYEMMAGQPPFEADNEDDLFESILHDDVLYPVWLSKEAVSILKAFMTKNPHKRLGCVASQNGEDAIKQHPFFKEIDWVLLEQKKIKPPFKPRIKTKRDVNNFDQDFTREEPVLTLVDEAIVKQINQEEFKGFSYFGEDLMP

[27] = tested on: Tyrosine-protein kinase ABL1 (Homo sapiens), P00519 [T315I]; assay: Inhibition of human Abl T315I mutant at 10 uM after 60 mins by TR-FRET assay; values are per cent of control

S=c1[nH]nc(-c2ccncc2)n1-c1ccc2ccccc2c1
residual activity [1]: 110% | residual activity [2]: 112% | residual activity [3]: 71% | residual activity [4]: 119% | residual activity [5]: 101% | residual activity (Rattus norvegicus): 108% | residual activity [6]: 109% | residual activity [7]: 113% | residual activity [8]: 101% | residual activity [9]: 4% | residual activity [10]: 105% | residual activity [11]: 118% | residual activity [12]: 112% | residual activity [13]: 103% | residual activity [14]: 103% | residual activity [15]: 104% | residual activity [16]: 96% | residual activity [17]: 112% | residual activity [18]: 79% | residual activity [19]: 108% | residual activity [20]: 93% | residual activity [21]: 108% | residual activity [22]: 90% | residual activity [23]: 109% | residual activity [24]: 118% | residual activity [25]: 106% | residual activity [26]: 100% | residual activity [27]: 110%
